This note sets out measurements from publication PMC10348545 (PLOS Pathogens, 2023).

The target in this test is T1, CbMip (Coxiella burnetii, UniProt P51752).
T1 construct: gene mip
Kind of test: biochemical.

T1 sequence (P51752 22-230 limits assumed): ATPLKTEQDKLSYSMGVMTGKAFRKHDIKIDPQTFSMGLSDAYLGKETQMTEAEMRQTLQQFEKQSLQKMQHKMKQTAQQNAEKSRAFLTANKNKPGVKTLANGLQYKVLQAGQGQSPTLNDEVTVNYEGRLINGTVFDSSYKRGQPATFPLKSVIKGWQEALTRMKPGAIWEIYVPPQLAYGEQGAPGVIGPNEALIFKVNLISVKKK

Take `O=C(NCCOC(=O)[C@@H]1CCCCN1S(=O)(=O)Cc1ccccc1)c1cccnc1` [SF235]: the affinity corresponds to a Ki of 18 ± 4 µM.
On to `O=C(O[C@@H](Cc1ccccc1)C(=O)NCc1cccnc1)C1CCCCN1S(=O)(=O)Cc1ccccc1` (some centres unmarked) [ANCH37], for which the inhibitory constant (Ki) (usually a dissociation constant, usually derived from enzyme kinetics or from competition with a known ligand) came to 4.6 ± 0.9 µM.
